Test system: rat cortical neuron cultures
Assay: Transcriptional profiling of cortical neuron cultures
Type: cell-based
Details: 10 μM
Method: Cortical neuron cultures were prepared from E16 rat embryos. After plating for 24 hrs, cultures were treated with 10 μM immunophilin ligands and the corresponding vehicle. After treatment for 4 hrs, 12 hrs, 24 hrs and 48 hrs, cells were lysed. Total RNA from each sample was extracted with the RNEASY® Mini Kit (QIAGEN®). Double stranded cDNA was synthesized from 2 μg of each RNA sample using the […]® System (INVITROGEN®), purified, transcribed in vitro to prepare biotinylated cRNA using T7 RNA polymerase in the presence of biotin labeled UTP and CTP. The fragmented cRNAs were hybridized to a Rat Genome 230 2.0 […]® (AFFYMETRIX®, Santa Clara, Calif.) as recommended by the manufacturer. Hybridized arrays were stained according to manufacture protocols on a Fluidics Station 450 and subsequently scanned on an AFFYMETRIX® scanner 3000. The raw data was generated using AFFYMETRIX® MAS 5.0 Software. Transcriptional profiling data were analyzed in Ingenuity.

With `CO[C@H]1C[C@@H]2CC[C@@H](C)[C@@](O)(O2)C(=O)C(=O)N2CCCCC2C(=O)O[C@H]([C@H](C)C[C@@H]2CC[C@@H](O)[C@H](OC)C2)CC(=O)[C@H](C)/C=C(\C)[C@@H](O)[C@@H](OC)C(=O)[C@H](C)C[C@H](C)C2C=C[C@H](/C=C/1C)ON2c1ccccc1` (some centres unmarked) [Rapamycin analogue I, 9,27-dihydroxy-3-{2-[4-hydroxy-3-methoxycyclohexyl]-1-methylethyl}-10,21-dimethoxy-6,8,12,14,20,26-hexamethyl-37-phenyl-4,9,10,12,13,14,15,18,21,22,23,24,25,26,27,32,33,34,34a-nonadecahydro-3H-23,27-epoxy-18,15-(epoxyimino)pyrido[2,1-c][1,4]oxazacyclohentriacontine-1,5,11,28,29(6H, 31H)-pentone] the “fold change vs DMSO, ACTA1” value (ACTA1) was −1.53 fold, the “fold change vs DMSO, ACTA2” value (ACTA2) was 1.41 fold and the “fold change vs DMSO, AKAP5” value (AKAP5) was −2.56 fold. For the same molecule, the “fold change vs DMSO, ASPH” value (ASPH) was −3.19 fold, the “fold change vs DMSO, ATP2A2” value (ATP2A2) was 1.85 fold and the “fold change vs DMSO, ATP2B1” value (ATP2B1) was 1.53 fold. For the same molecule, the “fold change vs DMSO, ATP2B3” value (ATP2B3) was −1.54 fold, the “fold change vs DMSO, ATP2C1” value (ATP2C1) was −1.38 fold and the “fold change vs DMSO, CABIN1” value (CABIN1) was 1.33 fold. For the same molecule, the “fold change vs DMSO, CACNA1B” value (CACNA1B) was −1.77 fold, the “fold change vs DMSO, CACNA1C” value (CACNA1C) was 1.48 fold and the “fold change vs DMSO, CACNA1D” value (CACNA1D) was −1.72 fold. For the same molecule, the “fold change vs DMSO, CACNA2D1” value (CACNA2D1) was 3.47 fold, the “fold change vs DMSO, CACNB1” value (CACNB1) was −1.32 fold and the “fold change vs DMSO, CACNG2” value (CACNG2) was −1.8 fold. The “fold change vs DMSO, CACNG3” value (CACNG3) was −3.73 fold, the “fold change vs DMSO, CALM1” value (CALM1) was −1.74 fold and the “fold change vs DMSO, CALM2” value (CALM2) was −1.22 fold. The “fold change vs DMSO, CALM3” value (CALM3) was −1.34 fold, the “fold change vs DMSO, CALR” value (CALR) was 1.18 fold and the “fold change vs DMSO, CAMK1” value (CAMK1) was −1.6 fold. The “fold change vs DMSO, CAMK1G” value (CAMK1G) was −2.47 fold, the “fold change vs DMSO, CAMK2A” value (CAMK2A) was −2.03 fold and the “fold change vs DMSO, CAMK2B” value (CAMK2B) was −1.82 fold. For the same molecule, the “fold change vs DMSO, CAMK2D” value (CAMK2D) was −1.45 fold, the “fold change vs DMSO, CAMK4” value (CAMK4) was −1.42 fold and the “fold change vs DMSO, CHP” value (CHP) was 1.65 fold. For the same molecule, the “fold change vs DMSO, CREBBP” value (CREBBP) was 4.14 fold, the “fold change vs DMSO, CYP27B1” value (CYP27B1) was −1.27 fold and the “fold change vs DMSO, DHCR7” value (DHCR7) was 1.84 fold. The “fold change vs DMSO, DSCR1” value (DSCR1) was −1.93 fold, the “fold change vs DMSO, DSCR1L1” value (DSCR1L1) was −4.44 fold and the “fold change vs DMSO, EBP” value (EBP) was 1.45 fold. For the same molecule, the “fold change vs DMSO, FDFT1” value (FDFT1) was 1.94 fold, the “fold change vs DMSO, FDPS” value (FDPS) was 2.34 fold and the “fold change vs DMSO, GRIA1” value (GRIA1) was −2.78 fold. The “fold change vs DMSO, GRIA2” value (GRIA2) was 2.74 fold, the “fold change vs DMSO, GRIN1” value (GRIN1) was −2.41 fold and the “fold change vs DMSO, GRIN2B” value (GRIN2B) was −1.94 fold. The “fold change vs DMSO, GRIN3A” value (GRIN3A) was −1.84 fold, the “fold change vs DMSO, GRINA” value (GRINA) was −1.21 fold and the “fold change vs DMSO, HDAC5” value (HDAC5) was 1.78 fold. The “fold change vs DMSO, HDAC6” value (HDAC6) was −1.18 fold, the “fold change vs DMSO, HDAC7A” value (HDAC7A) was 1.24 fold and the “fold change vs DMSO, HMGCR” value (HMGCR) was 2.24 fold. The “fold change vs DMSO, HTR3A” value (HTR3A) was −1.57 fold, the “fold change vs DMSO, IDI1” value (IDI1) was 3.24 fold and the “fold change vs DMSO, ITPR3” value (ITPR3) was −1.85 fold. The “fold change vs DMSO, LSS” value (LSS) was 13.3 fold, the “fold change vs DMSO, MAPK1” value (MAPK1) was 1.29 fold and the “fold change vs DMSO, MAPK3” value (MAPK3) was −1.31 fold. The “fold change vs DMSO, MVD” value (MVD) was 1.94 fold, the “fold change vs DMSO, MVK” value (MVK) was 1.6 fold and the “fold change vs DMSO, MYH1” value (MYH1) was −2.18 fold. The “fold change vs DMSO, MYH6” value (MYH6) was −7.18 fold, the “fold change vs DMSO, MYH7” value (MYH7) was −6.11 fold and the “fold change vs DMSO, MYL6B” value (MYL6B) was −1.69 fold. The “fold change vs DMSO, NQO1” value (NQO1) was 1.8 fold, the “fold change vs DMSO, PMVK” value (PMVK) was 1.33 fold and the “fold change vs DMSO, PPP3CB” value (PPP3CB) was −1.3 fold. For the same molecule, the “fold change vs DMSO, PPP3CC” value (PPP3CC) was −1.18 fold, the “fold change vs DMSO, PPP3R1” value (PPP3R1) was −1.49 fold and the “fold change vs DMSO, PRKAG1” value (PRKAG1) was −1.21 fold. The “fold change vs DMSO, PRKAR1A” value (PRKAR1A) was 1.08 fold, the “fold change vs DMSO, PRKAR1B” value (PRKAR1B) was −3.36 fold and the “fold change vs DMSO, PRKAR2A” value (PRKAR2A) was −1.56 fold. The “fold change vs DMSO, PRKAR2B” value (PRKAR2B) was −1.56 fold, the “fold change vs DMSO, RAP1B” value (RAP1B) was −1.29 fold and the “fold change vs DMSO, SC5DL” value (SC5DL) was 2.01 fold. For the same molecule, the “fold change vs DMSO, SQLE” value (SQLE) was 1.92 fold, the “fold change vs DMSO, TPM1” value (TPM1) was −2.55 fold and the “fold change vs DMSO, TPM3” value (TPM3) was −2.04 fold. The “fold change vs DMSO, TRPC1” value (TRPC1) was −1.21 fold, the “fold change vs DMSO, TRPC3” value (TRPC3) was −2.4 fold and the “fold change vs DMSO, TRPC4” value (TRPC4) was −4.56 fold. The “fold change vs DMSO, TRPV6” value (TRPV6) was 1.65 fold and the “fold change, PLAU” value (plasminogen activator (PLAU)) was −40 fold.

Source: patent publication US20100196355A1, “Immunophilin Ligands and Methods for Modulating Immunophilin and Calcium Channel Activity” (Wyeth, priority 2007, published 2010)
